Test results as given in patent US6057441A, “Substituted tetracyclic tetrahydrofuran derivatives” (Janssen Pharmaceutica, N.V., priority 1996, dated 2000).
Counter-ions that a name gives are not always drawn.

What was measured:
[1] = test system: mCPP (metachlorophenylpiperazine) induced effects; assay: mCPP Test on Rats; format: in vivo, rat; conditions: pre-test time T of 1 hour, 1 mg/kg mCPP intravenously 15 minutes prior to the test, Open Field Test; for ED40: Rattus norvegicus, iv, read-out: active dose (dose at which 40% of the tested rats showed suppression of the mCPP induced effects, i.e. mCPP-antagonism)
Experimental: Rats were treated with the test compound at a dose varying between 0.0025 mg/kg and 40 mg/kg body weight at a pre-test time T of 1 hour, and with 1 mg/kg mCPP (metachlorophenylpiperazine), injected intravenously, 15 minutes prior to the test. After pre-test time T elapsed, treated rats were submitted to the "Open Field Test on Rats" as described in Drug. Dev. Res. 18, 119-144 (1989), but using an infra-red light source instead of a Kleverlux® (12 V/20 W) light source. […] Compounds number 1, 2, 4 and 9 were active at a test dose of 2.5 mg/kg or less.

5-HT2A receptor = target: T1, 5-HT2A receptor (Rattus norvegicus, UniProt P14842); assay: In vitro radioligand binding affinity for 5-HT2A receptor (3H-ketanserin, frontal cortex); conditions: test concentration of 10^-7 M, frontal cortex of the rat
T1 construct: the tissue used is the frontal cortex of the rat; from tissue; host or cells: rat frontal cortex
T1 sequence (P14842 whole entry): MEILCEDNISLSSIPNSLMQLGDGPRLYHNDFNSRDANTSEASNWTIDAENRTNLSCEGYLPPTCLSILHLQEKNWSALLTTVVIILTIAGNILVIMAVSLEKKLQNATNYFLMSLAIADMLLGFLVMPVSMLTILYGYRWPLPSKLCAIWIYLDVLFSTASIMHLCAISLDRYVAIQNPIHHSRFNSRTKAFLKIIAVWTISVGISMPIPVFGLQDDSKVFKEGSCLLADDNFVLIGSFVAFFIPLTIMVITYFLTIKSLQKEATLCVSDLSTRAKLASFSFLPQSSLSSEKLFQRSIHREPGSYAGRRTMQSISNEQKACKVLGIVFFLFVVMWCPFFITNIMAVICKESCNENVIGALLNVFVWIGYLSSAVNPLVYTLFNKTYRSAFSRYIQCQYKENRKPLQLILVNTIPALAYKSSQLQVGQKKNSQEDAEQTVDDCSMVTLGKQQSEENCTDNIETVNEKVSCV
Experimental: (§1) The interaction of the compounds of formula (I) with 5-HT2A and 5-HT2C receptors was assessed in in vitro radioligand binding experiments. In general, a low concentration of a radioligand with a high binding affinity for the receptor is incubated with a sample of a tissue preparation enriched in a particular receptor (1 to 5 mg tissue) in a buffered medium (0.2 to 5 ml). During the incubation, the radioligands bind to the receptor. When equilibrium of binding is reached, the receptor bound radioactivity is separated from the non-bound radioactivity, and the receptor bound activity is counted. The interaction of the test compounds with the receptors is assessed in competition binding experiments. Various concentrations of the test compound are added to the incubating mixture containing the tissue preparation and the radioligand. Binding of the radioligand will be inhibited by the test compound in proportion to its binding affinity and its concentration. The radioligand used for 5-HT2A binding affinity is ^3 H-ketanserin and the tissue used is the frontal cortex of the rat. […] The radioligand used for 5-HT2C binding affinity is ^3 H-mesulergine and the tissue used is the choroid plexus of the pig.

5-HT2C receptor = target: T2, 5-HT2C receptor (Sus scrofa, UniProt K7GSR7); assay: In vitro radioligand binding affinity for 5-HT2C receptor (3H-mesulergine, choroid plexus); conditions: test concentration of 10^-7 M, choroid plexus of the pig
T2 construct: the tissue used is the choroid plexus of the pig; from tissue; host or cells: pig choroid plexus
T2 sequence (K7GSR7 1-457): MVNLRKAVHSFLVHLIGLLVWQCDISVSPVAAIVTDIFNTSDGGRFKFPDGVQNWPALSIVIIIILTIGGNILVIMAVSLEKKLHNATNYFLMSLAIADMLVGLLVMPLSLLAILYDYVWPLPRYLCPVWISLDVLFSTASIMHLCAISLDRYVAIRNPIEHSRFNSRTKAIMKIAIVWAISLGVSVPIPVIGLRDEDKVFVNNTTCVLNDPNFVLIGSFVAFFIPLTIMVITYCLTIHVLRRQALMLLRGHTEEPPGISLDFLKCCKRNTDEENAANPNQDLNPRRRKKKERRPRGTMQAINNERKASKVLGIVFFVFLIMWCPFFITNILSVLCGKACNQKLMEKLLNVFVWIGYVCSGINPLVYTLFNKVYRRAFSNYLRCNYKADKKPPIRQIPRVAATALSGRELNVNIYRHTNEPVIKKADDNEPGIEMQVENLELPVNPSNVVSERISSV
Experimental: as §1

[2] = dose of 300 mg/kg; cited from earlier work

| SMILES | ED40 [1] | inhibition at 0.1 µM (5-HT2A receptor) | inhibition at 0.1 µM (5-HT2C receptor) | further results |
| --- | --- | --- | --- | --- |
| c1ccc2c(c1)Cc1ccccc1C1OC(CN3CCOCC3)CC21 (stereo not shown) [Compound 9] | ≤ 2.5 mg/kg | > 40% | > 40% | – |
| CN1CCN(CC2CC3c4ccccc4Cc4ccccc4C3O2)CC1 (stereo not shown) [Compound 5] | – | > 40% | > 40% | – |
| c1ccc(C2CCN(CC3CC4c5ccccc5Cc5ccccc5C4O3)CC2)cc1 (stereo not shown) [Compound 7] | – | – | > 40% | – |
| O=C(c1ccc(F)cc1)C1CCN(CC2CC3c4ccccc4Cc4ccccc4C3O2)CC1 (stereo not shown) [Compound 8] | – | > 40% | > 40% | – |
| Clc1cccc(N2CCN(CC3CC4c5ccccc5Cc5ccccc5C4O3)CC2)c1 (stereo not shown) [Compound 6] | – | – | > 40% | – |
| CN(C)CC1CC2c3ccccc3Oc3ccccc3C2O1 (racemic) [Compound 1, (±)-2,3,3a,12b-tetrahydro-N,N-dimethyldibenzo[bf]furo[2,3-d]oxepin-2-methanamine] | ≤ 2.5 mg/kg | – | > 40% | – |
| CNCC1CC2c3ccccc3Cc3ccccc3C2O1.O=C(O)C(=O)O (racemic) [(±)-3,3a,8,12b-tetrahydro-N-methyl-2H-dibenzo[3,4:6,7]-cyclohepta[1,2-b]furan-2-methanamine oxalic acid] | – | – | – | antidepressant activity [2]: inactive |
| CN(C)CC1CC2c3ccccc3Oc3ccccc3C2O1 (stereo not shown) [Compound 2] | – | – | – | active dose (dose at which 40% of the tested rats showed suppression of the mCPP induced effects, i.e. mCPP-antagonism) [1]: ≤ 2.5 mg/kg; inhibition of the 5-HT2C receptor (5-HT2C receptor): less than 40% |
| CN(C)CC1CC2c3ccccc3Cc3ccccc3C2O1.Cl (racemic) [Compound 4, (±)-3,3a,8,12b-tetrahydro-N,N-dimethyl-2H-dibenzo[3,4:6,7]cyclohepta[1,2-b]furan-2-methanamine hydrochloride (1:1)] | ≤ 2.5 mg/kg | > 40% | > 40% | – |
| OCCN1CCN(CC2CC3c4ccccc4Cc4ccccc4C3O2)CC1 (racemic) [Compound 3, (±)-4-[(3,3a,8,12b-tetrahydro-2H-dibenzo[3,4:6,7]cyclohepta[1,2-b]furan-2-yl)methyl]-1-piperazineethanol dihydrochloride] | – | > 40% | > 40% | – |
